Read-outs that look alike come from different tables or passages of the source.
How the values were obtained:
[1] = biological target: Bcl-2 (Homo sapiens, UniProt P10415); test: Competitive fluorescence polarization assay, displacement of Flu-BakBH3 peptide from Bcl-2; format: binding
Protocol: (§1) Competitive Fluorescence Polarization Assay. The binding affinity of the test agent to Bcl-2 and Bcl-xL was analyzed by a competitive fluorescence polarization assay, in which the ability of the agent to displace the binding of a Bak BH3-domain peptide to either Bcl-2 or Bcl-xL was determined. Flu-BakBH3, a Bak-BH3 peptide labeled at the N-terminus with fluorescein, was purchased from Genemed Synthesis (San Francisco, Calif.). C-Terminal-truncated, His-tagged Bcl-xL was purchased from EMD Biosciences (San Diego, Calif.), and soluble GST-fused Bcl-2 was obtained from Santa Cruz (Santa Cruz, Calif.). The KD determination was carried out in a dual-pathlength quartz cell with readings taken at […] at room temperature using a luminescence spectrometer according to an established procedure (17). Determination of IC50 values. Data from cell viability and FP assays were analyzed by using the CalcuSyn software (Biosoft, Ferguson, Mo.) to determine IC50 values, in which the calculation was based on the medium effect equation (18), i.e., Log(fa/fu)=m log(D)−m log(Dm) (equation 1), where fa and fu denote fraction affected and unaffected, respectively; m represents the Hill-type coefficient signifying the sigmoidicity of the dose-effect curve; D and Dm are the dose used and IC50, respectively.

[2] = tested on: PC-3 cells; test: Cell viability analysis (MTT) in PC-3 cells; format: cell-based; details: read-out: IC50 (μM) PC3
Protocol: Cell viability analysis. The effect of individual test agents on cell viability was assessed by using the MTT {[3-(4,5-dimethylthiazol-2-yl)-2,5-diphenyl-2H-tetrazolium bromide]} assay in six to twelve replicates. […] Controls received DMSO vehicle at a concentration equal to that in drug-treated cells. […] Supernatants were removed from the wells, and the reduced MTT dye was solubilized in 200 μl/well DMSO. Absorbance at 570 nm was determined on a plate reader.
(§2) Determination of IC50 values. Data from cell viability and FP assays were analyzed by using the CalcuSyn software (Biosoft, Ferguson, Mo.) to determine IC50 values, in which the calculation was based on the medium effect equation (18), i.e., Log(fa/fu)=m log(D)−m log(Dm) (equation 1), where fa and fu denote fraction affected and unaffected, respectively; m represents the Hill-type coefficient signifying the sigmoidicity of the dose-effect curve; D and Dm are the dose used and IC50, respectively.

[3] = tested on: LNCaP cells; test: Cell viability analysis (MTT) in LNCaP cells; format: cell-based; details: Homo sapiens
Protocol: (§3) Cell viability analysis. The effect of individual test agents on cell viability was assessed by using the MTT {[3-(4,5-dimethylthiazol-2-yl)-2,5-diphenyl-2H-tetrazolium bromide]} assay in six to twelve replicates. Cells were seeded and incubated in 96-well, flat-bottomed plates in serum-free media for 24 h, and were exposed to various concentrations of test agents dissolved in DMSO (final concentration, 0.1%) in serum-free RPMI 1640 medium for different time intervals. Controls received DMSO vehicle at a concentration equal to that in drug-treated cells. The medium was removed, replaced by 200 μl of 0.5 mg/ml of MTT in 10% FBS-containing RPMI-1640 medium, and cells were incubated in the CO2 incubator at 37° C. for 2 h. Supernatants were removed from the wells, and the reduced MTT dye was solubilized in 200 μl/well DMSO. Absorbance at 570 nm was determined on a plate reader.
as §2

[4] = biological target: T1, Bcl-xL (Homo sapiens, UniProt Q07817); test: Competitive fluorescence polarization assay, displacement of Flu-BakBH3 peptide from Bcl-xL; format: binding
T1 construct: fused on or other part: His tag
T1 sequence (Q07817 1-209 limits assumed): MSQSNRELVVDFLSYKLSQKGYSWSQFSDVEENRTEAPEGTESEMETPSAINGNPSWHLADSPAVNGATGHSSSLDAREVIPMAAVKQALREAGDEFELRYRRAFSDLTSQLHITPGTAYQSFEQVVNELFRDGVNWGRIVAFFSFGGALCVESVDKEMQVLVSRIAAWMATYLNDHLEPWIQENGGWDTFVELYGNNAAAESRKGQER
Protocol: as §1

[5] = WB (IC50 for WB, Tables 1-9); format: cell-based; details: marker, cell line and unit inferred
Protocol: (§4) Immunoblotting. Cells in T-75 flasks were collected by scraping, and suspended in 60 μl of phosphate-buffered saline (PBS). Two μl of the suspension was taken for protein analysis using the Bradford assay kit (Bio-Rad, Hercules, Calif.). To the remaining solution was added the same volume of 2×SDS-PAGE sample loading buffer (100 mM Tris-HCl, pH 6.8, 4% SDS, 5% β-mercaptoethanol 20% glycerol, and 0.1% bromophenol blue). The mixture was sonicated briefly, and boiled for 5 min. Equal amounts of proteins were loaded onto 10% SDS-PAGE gels.
(§5) After electrophoresis, protein bands were transferred to nitrocellulose membranes in a semidry transfer cell. The transblotted membrane was washed twice with Tris-buffered saline (TBS) containing 0.1% Tween 20 (TBST). After blocking with TBST containing 5% nonfat milk for 40 min, the membrane was incubated with the appropriate primary antibody in TBST-1% nonfat milk at 4° C. overnight. All primary antibodies were diluted 1:1000 in 1% nonfat milk-containing TBST. After treatment with the primary antibody, the membrane was washed three times with TBST for a total of 15 min, followed by incubation with goat anti-rabbit or anti-mouse IgG-horseradish peroxidase conjugates (diluted 1:5000) for 1 h at room temperature and three washes with TBST for a total of 1 h. The immunoblots were visualized by enhanced chemiluminescence.

[6] = MTT assay (IC50 for MTT, Tables 1-9); format: cell-based; details: cell line and unit inferred
Protocol: as §3, §2

[7] = tested on: PC-3 xenograft tumors; test: Xenograft tumor growth (PC-3 tumors in nude mice)
[8] = biological target: T2, PPARγ (Homo sapiens, UniProt P37231); test: Analysis of PPARγ activation (transcription factor ELISA, PC-3 nuclear extracts); format: cell-based; details: PC-3 cells, 10 μM, 48 h, versus DMSO vehicle
T2 construct: endogenous in cells; host or cells: PC-3 prostate cancer cells
T2 sequence (P37231 1-505): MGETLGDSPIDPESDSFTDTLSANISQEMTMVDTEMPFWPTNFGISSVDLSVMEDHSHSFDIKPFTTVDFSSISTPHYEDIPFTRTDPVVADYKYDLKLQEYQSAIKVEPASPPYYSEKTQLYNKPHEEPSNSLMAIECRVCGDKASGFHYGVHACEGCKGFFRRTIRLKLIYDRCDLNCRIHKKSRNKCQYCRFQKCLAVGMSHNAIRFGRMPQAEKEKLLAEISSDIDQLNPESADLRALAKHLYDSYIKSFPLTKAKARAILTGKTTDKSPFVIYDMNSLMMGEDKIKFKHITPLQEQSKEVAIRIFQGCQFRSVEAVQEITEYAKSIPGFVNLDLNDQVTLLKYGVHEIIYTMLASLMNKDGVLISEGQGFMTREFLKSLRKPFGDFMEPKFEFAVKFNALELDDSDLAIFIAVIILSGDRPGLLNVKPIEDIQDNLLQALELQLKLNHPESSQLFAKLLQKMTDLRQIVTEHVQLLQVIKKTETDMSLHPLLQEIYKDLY
Protocol: Analysis of PPARγ activation. The analysis was carried out by using a PPARγ transcription factor ELISA kit (Active Motif, Carlsbad, Calif.), in which an oligonucleotide containing the peroxisome proliferator response element (PPRE) was immobilized onto a 96-well plate. PPARs contained in nuclear extracts bind specifically to this oligonucleotide and are detected through an antibody directed against PPARγ. […] Cells were collected, and nuclear extracts were prepared with a Nuclear Extract kit (Active Motif, Carlsbad, Calif.). Nuclear extracts of the same protein concentration from individual treatments were subject to the PPARγ transcription factor ELISA according to the manufacturer's instruction.

[9] = biological target: T3, Bcl-xL/Bak (Homo sapiens, UniProt Q07817); test: Co-immunoprecipitation of Bak with Bcl-xL in PC-3 cells; format: cell-based; details: 50 μM, 12 h, compared to DMSO control
T3 construct: endogenous in cells; host or cells: PC-3 prostate cancer cells
T3 sequence (Q07817 whole entry): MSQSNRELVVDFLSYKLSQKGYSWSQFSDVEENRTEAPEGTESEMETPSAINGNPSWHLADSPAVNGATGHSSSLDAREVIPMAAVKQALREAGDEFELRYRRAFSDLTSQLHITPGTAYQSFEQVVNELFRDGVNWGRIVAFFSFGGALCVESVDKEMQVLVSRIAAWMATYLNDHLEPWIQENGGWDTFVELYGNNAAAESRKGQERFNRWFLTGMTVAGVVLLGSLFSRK
Protocol: (§6) Co-immunoprecipitation. […] After centrifugation at 13000×g for 15 min, the supernatants were collected, pre-incubated with protein A-Sepharose (Sigma, St. Louis, Mo.) for 15 min, and centrifuged at 1000×g for 5 min. The supernatants were exposed to Bcl-2 or Bcl-xL antibodies in the presence of protein A-Sepharose at 4° C. for 2 h. After brief centrifugation, protein A-Sepharose were collected, washed with the aforementioned lysis buffer 2 times, suspended in 2×SDS sample buffer, and subjected to Western blot analysis with antibodies against Bak.

[10] = biological target: T4, Bcl-2/Bak (Homo sapiens, UniProt P10415); test: Co-immunoprecipitation of Bak with Bcl-2 in PC-3 cells; format: cell-based; details: 50 μM, 12 h, compared to DMSO control
T4 construct: endogenous in cells; host or cells: PC-3 prostate cancer cells
T4 sequence (P10415 whole entry): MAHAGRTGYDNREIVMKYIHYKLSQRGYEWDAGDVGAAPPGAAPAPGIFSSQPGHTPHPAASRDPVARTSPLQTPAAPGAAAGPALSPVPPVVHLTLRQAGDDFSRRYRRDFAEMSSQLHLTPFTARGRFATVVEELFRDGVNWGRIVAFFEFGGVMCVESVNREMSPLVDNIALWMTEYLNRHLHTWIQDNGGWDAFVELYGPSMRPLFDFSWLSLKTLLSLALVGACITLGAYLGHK
Protocol: as §6

[11] = tested on: caspase-9; test: Caspase-9 activation in PC-3 cells (Western blot); format: cell-based; details: 24 h
Protocol: as §4, §5

[12] = inhibition of Bak BH3 peptide binding to Bcl-2, FP, read-out: IC50 Bcl-2/Bak
[13] = inhibition of Bak BH3 peptide binding to Bcl-xL, FP, read-out: IC50 Bcl-xl/Bak

Sequence of Bcl-2 (P10415 whole entry, the tested form may be a part): as the sequence (P10415 whole entry) above

SMILES | IC50 [1, 12] | IC50 ([2]; Homo sapiens, PC-3, PC-3 cells) | IC50 [4, 13] | IC50 [5] | IC50 [6] | activity in PPARγ activation [8] | further results
Cc1c(C)c2c(c(C)c1O)CCC(C)(COc1ccc(CC3SC(=O)NC3=O)cc1)O2 (centres unmarked) [TG, troglitazone, reference compound] | 22 ± 1 µM | 30 ± 2 µM | 22 ± 1 µM | – | – | – | IC50 [3]: 22 ± 3 µM
CC(C)=CCOc1c(C)c(C)c2c(c1C)CCC(C)(COc1ccc(/C=C3\SC(=O)NC3=O)cc1Br)O2 (centres unmarked) [TG-88] | 2.8 ± 0.3 µM | 2.5 ± 0.2 µM | 1.8 ± 0.2 µM | > 7.5 µM | – | lacked appreciable activity | extent of tumor growth inhibition ([7]; 100 mg/kg/day oral, after 63 days of treatment): 50%; extent of tumor growth inhibition ([7]; 200 mg/kg/day oral, after 63 days of treatment): 61%; tolerability, signs of toxicity ([7]; 100 and 200 mg/kg/day oral, nude mice): without observable signs of toxicity; body weights ([7]; 100 and 200 mg/kg/day oral, throughout the course of study): stable body weights; gross pathology at necropsy ([7]; after 63 days of treatment): No gross pathological abnormalities; IC50 ([2]; PC-3 cells): 4.2 ± 0.2 µM
CC1(COc2ccc(/C=C3\SC(=O)NC3=O)cc2)CCCCC1 [Δ2-CG, 5-[4-(1-methyl-cyclohexylmethoxy)-benzylidene]-thiazolidine-2,4-dione] | 22 ± 3 µM | 15 ± 1.2 µM | 17 ± 2 µM | 13 µM | 70 µM | completely devoid of the ligand binding activity | –
CCc1ccc(CCOc2ccc(/C=C3\SC(=O)NC3=O)cc2)nc1 [Δ2-PG, 5-{4-[2-(5-ethyl-pyridin-2-yl)-ethoxy]-benzylidene}-thiazolidine-2,4-dione] | > 50 µM | > 50 µM | > 50 µM | – | – | completely devoid of the ligand binding activity | IC50 ([1]; unit inferred, read-out: IC50 for inhibiting BH3-mediated protein interactions (Bcl-2)): > 50 µM; IC50 ([4]; unit inferred, read-out: IC50 for inhibiting BH3-mediated protein interactions (Bcl-xL)): > 50 µM
Cc1c(C)c2c(c(C)c1O)CCC(C)(COc1ccc(/C=C3\SC(=O)NC3=O)cc1)O2 (centres unmarked) [Δ2-TG, 5-[4-(6-hydroxy-2,5,7,8-tetramethyl-chroman-2-ylmethoxy)-benzylidene]-2,4-thiazolidine-dione] | 18 ± 1 µM | 20 ± 2 µM | 18 ± 1 µM | 22 µM | – | completely devoid of the ligand binding activity | level of Bak associated with Bcl-xL [9]: significantly reduced; IC50 [3]: 14 ± 1 µM; level of Bak associated with Bcl-2 [10]: significantly reduced; caspase-9 activation [11]: dose-dependent

Continued, in another order:

IC50 [1, 12] | IC50 ([2]; Homo sapiens, PC-3, PC-3 cells) | IC50 [4, 13] | IC50 [5] | SMILES | IC50 [6] | activity in PPARγ activation [8] | further results
19 ± 0.8 µM | 19 ± 0.5 µM | 13 ± 0.9 µM | > 7.5 µM | Cc1c(C)c2c(c(C)c1OC/C=C/c1ccccc1)CCC(C)(COc1ccc(/C=C3\SC(=O)NC3=O)cc1)O2 (centres unmarked) [TG-10] | 19 µM | – | –
30 ± 1.5 µM | 22 ± 0.6 µM | 28 ± 1.4 µM | > 7.5 µM | Cc1c(C)c2c(c(C)c1OC(=O)CCC(=O)O)CCC(C)(COc1ccc(/C=C3\SC(=O)NC3=O)cc1)O2 (centres unmarked) [TG-13] | > 50 µM | – | –
4.7 ± 2 µM | 30 ± 1.1 µM | 4.9 ± 1.2 µM | > 7.5 µM | CC(C)=CCOc1c(C)c(C)c2c(c1C)CCC(C)(COc1ccc(/C=C3\SC(=O)NC3=O)cc1-c1ccc(C(F)(F)F)cc1)O2 (centres unmarked) [TG-31] | > 50 µM | – | –
21 ± 1.4 µM | 17 ± 0.9 µM | 18 ± 0.8 µM | > 7.5 µM | CCc1ccc(-c2cc(/C=C3\SC(=O)NC3=O)ccc2OCC2(C)CCc3c(C)c(OCC=C(C)C)c(C)c(C)c3O2)cc1 (centres unmarked) [TG-33] | > 50 µM | – | –

From patent US8309582B2, “Small molecule Bcl-Xl/Bcl-2 binding inhibitors” (The Ohio State University Research Foundation, priority 2004, dated 2012)
